Experimental data published in patent US12708608B2, “Methods of treating schizophrenia and other neuropsychiatric disorders” (UNIVERSITY OF ROCHESTER, priority 2018, dated 2026).
“Also recorded” adds a separate entry of the source. Like-named read-outs stand apart in the source and are kept apart here.

Legend:
Type in all cases: cell-based, human
CTR astrocytes = experiment: Potassium (86Rb) uptake by control-derived astrocytes; conditions: 4 CTR lines, drug-treated
Description: (§1) Potassium uptake Astrocytes were plated onto poly-ornithine- and laminin-coated 24-well plates with 30,000 cells/well. For the potassium uptake assay, astrocytes were incubated with ^86Rb (1.0-3.3 uCi/well) for 15 min, and then they were washed three time with ice-cold artificial cerebrospinal fluid (aCSF, 500 μL/well). For cell lysis, 0.5N NaOH (200 μL/well) was put into each well, which was put into 5 ml cocktail liquid (Ultima Gold, Fisher Scientific, 509050575) and measured by scintillation counter (Beckman Coulter, LS6500), and the results were normalized to both total protein (BCA Protein Assay Kit, Fisher Scientific, 23227) and cell number (Hemocytometer, Fisher Scientific, 02-671-54). The aCSF solution contained (in mM) 124 NaCl, 2.5 KCl, 1.75 NaH2PO4, 2 MgCl2, 2 CaCl2, 0.04 Vit.C, 10 glucose and 26 NaHCO3, pH 7.4.
Next, functional K^+ uptake was assessed directly, in cultured SCZ- and CTR-derived astrocytes. To obtain mature SCZ and CTR astrocyte cultures, CD44-sorted astrocyte-biased progenitors were cultured in base media supplemented with 10% fetal bovine serum (FBS) and 20 ng/ml BMP4 for 3 weeks, so as to potentiate the differentiation of mature, glial fibrillary acidic protein (GFAP)-expressing, fiber-bearing astrocytes (FIGS. 5A-5C). […] Astrocytes from 4 different SCZ and 4 different CTR lines were then incubated with ^86Rb, a surrogate monovalent cation for K^+ uptake (Larsen et al., “Contributions of the Na(+)/K(+)-ATPase, NKCC1, and Kir4.1 to Hippocampal K(+) Clearance and Volume Responses,” Glia 62:608-622 (2014), which is hereby incorporated by reference in its entirety), and rubidium uptake measured as a function of both cell number and total protein.

SCZ astrocytes = experiment: Potassium (86Rb) uptake by schizophrenia-derived astrocytes; conditions: 4 SCZ lines, drug-treated
Description: as §1, with “The aCSF solution contained (in mM) 124 NaCl, 2.5 KCl, 1.75 NaH2PO4, 2 MgCl2, 2 CaCl2, 0.04 Vit.C, 10 glucose and 26 NaHCO3, pH 7.4.” left out
Next, functional K^+ uptake was assessed directly, in cultured SCZ- and CTR-derived astrocytes. […] Astrocytes from 4 different SCZ and 4 different CTR lines were then incubated with ^86Rb, a surrogate monovalent cation for K^+ uptake (Larsen et al., “Contributions of the Na(+)/K(+)-ATPase, NKCC1, and Kir4.1 to Hippocampal K(+) Clearance and Volume Responses,” Glia 62:608-622 (2014), which is hereby incorporated by reference in its entirety), and rubidium uptake measured as a function of both cell number and total protein.
To test this postulate, lentivirus was used to overexpress REST in CTR glial cells, and K^+ uptake by the transduced cells was assessed.

[1] = tested on: REST-overexpressing CTR astrocytes; experiment: Potassium (86Rb) uptake by CTR astrocytes transduced to over-express REST
[2] = tested on: REST shRNAi-transduced SCZ astrocytes; experiment: Potassium (86Rb) uptake by SCZ astrocytes with REST knockdown

Molecule: C[C@@H]1O[C@@H](O[C@H]2C[C@@H](O)[C@]3(CO)[C@H]4[C@H](O)C[C@]5(C)[C@@H](C6=CC(=O)OC6)CC[C@]5(O)[C@@H]4CC[C@]3(O)C2)[C@H](O)[C@H](O)[C@H]1O [ouabain]
- K+ uptake by CTR astrocytes (CTR astrocytes): significantly inhibited; also recorded: efficiently decreased
- K+ uptake by CTR astrocytes (CTR astrocytes; listed as Ouabain): significantly inhibited
- K+ uptake by SCZ astrocytes (SCZ astrocytes): neither ouabain nor bumetanide affected; also recorded: neither affected
- K+ uptake by REST-overexpressing CTR astrocytes [1]: Neither ouabain nor bumetanide further decreased
- K+ uptake by SCZ glia with REST knockdown [2]: significantly reduced; also recorded: significantly inhibited

Molecule: tertiapin (ALCNCNRIIIPHMCWKKCGKK; UniProt P56587 1-21, looked up) [drug which targets Kir (inwardly rectifying K+) channels]
- K+ uptake by CTR astrocytes (CTR astrocytes): did not

Molecule: CCCCNc1cc(C(=O)O)cc(S(N)(=O)=O)c1Oc1ccccc1 [bumetanide]
- K+ uptake by CTR astrocytes (CTR astrocytes): significantly inhibited; also recorded: efficiently decreased
- K+ uptake by SCZ astrocytes (SCZ astrocytes): neither ouabain nor bumetanide affected; also recorded: neither affected
- K+ uptake by REST-overexpressing CTR astrocytes ([1]; 86Rb uptake, lentiviral-REST transduced CTR astrocytes, drug-treated): Neither ouabain nor bumetanide further decreased
- K+ uptake by SCZ glia with REST knockdown ([2]; 86Rb uptake, REST shRNAi-transduced SCZ astrocytes, drug-treated): significantly reduced; also recorded: significantly inhibited
